Data from patent US6447748B1, “Benzamide compounds for cancer imaging and therapy” (Research Corporation Technologies, Inc., priority 1993, dated 2002).
Read-outs that look alike come from different tables or passages of the source. One block for each compound: values may come before it.

How the values were obtained:
[1] = Biodistribution of 4-[125I]PEMP in Sprague Dawley rats; format: in vivo; conditions: for Biodistribution Blood / Biodistribution Bone / Biodistribution Brain / Biodistribution Heart / Biodistribution Kidney / Biodistribution Liver / Biodistribution Lung / Biodistribution Muscle / Biodistribution Spleen / Biodistribution Thyroid: average of four rats
Method: Balb/c nu/nu mice (17-22 g) were injected intravenously with 0.2 ml of a saline solution containing [^125I]PAB (5-6 μCi). […] The values obtained were normalized to a mouse weighing 20 g.
Biodistribution experiments were performed to assess the clearance of N-[(4-[^125I]-iodophenyl)ethyl]-N-methyl-2-(1-piperidinyl)-ethylamine, 4-[^125I]PEMP. The compound was prepared according to the procedure described in Example 16. For in vivo studies, Sprague Dawley rats were used. Animal biodistribution assays were performed according to the procedure described in Example 11.

[2] = target: T1, sigma sites labeled by 4-[125I]BP in MCF-7 breast cancer cells (Homo sapiens, UniProt Q5BJF2); assay: Homologous and heterologous competition for 4-[125I]BP binding in intact MCF-7 cells; conditions: 37° C. for 1 hr., unit printed in b378 only, not in the table
T1 construct: Intact adherent cells were washed (2×1 mL) with 10 mM phosphate buffer; endogenous in cells; host or cells: intact adherent MCF-7 breast cancer cells
T1 sequence (Q5BJF2 whole entry): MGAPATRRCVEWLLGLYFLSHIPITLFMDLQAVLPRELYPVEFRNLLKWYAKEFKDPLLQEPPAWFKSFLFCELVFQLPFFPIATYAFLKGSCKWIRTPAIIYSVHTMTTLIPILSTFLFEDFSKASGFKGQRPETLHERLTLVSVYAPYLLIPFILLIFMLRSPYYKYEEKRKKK
Method: Intact adherent cells were washed (2×1 mL) with 10 mM phosphate buffer (pH=7.2). […] Each data point represent an average of three values. The cells were incubated at 37° C. for 1 hr. and subsequently washed with phosphate buffer (10 mM; pH 7.2) (3×1 mL). The cells were then dissolved in 0.2 N NaOH (1.0 mL) and the activity counted on a Beckman (DP 5500) Gamma Counter.

[3] = target: T2, Sigma-2 (Rattus norvegicus, UniProt Q5U3Y7); assay: Sigma-2 binding assay, rat liver membranes, [3H]DTG + dextrallorphan (Example 9)
T2 sequence (Q5U3Y7 1-176): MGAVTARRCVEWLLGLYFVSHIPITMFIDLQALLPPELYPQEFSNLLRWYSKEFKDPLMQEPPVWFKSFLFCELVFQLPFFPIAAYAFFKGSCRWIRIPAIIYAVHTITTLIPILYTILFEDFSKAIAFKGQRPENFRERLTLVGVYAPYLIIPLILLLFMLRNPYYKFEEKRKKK

[4] = target: Sigma-1 (Cavia porcellus, UniProt Q60492); assay: Sigma-1 binding assay, guinea pig brain membranes, [3H]-(+)-pentazocine (Example 9)
Chain of Sigma-1 (Q60492 whole entry): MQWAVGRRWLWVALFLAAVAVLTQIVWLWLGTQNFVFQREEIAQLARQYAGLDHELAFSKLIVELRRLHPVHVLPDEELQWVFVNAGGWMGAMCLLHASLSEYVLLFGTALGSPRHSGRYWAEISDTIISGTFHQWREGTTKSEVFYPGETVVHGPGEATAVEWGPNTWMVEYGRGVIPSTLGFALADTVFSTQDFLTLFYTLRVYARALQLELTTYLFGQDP
Method: A plasma membrane-mitochondrial (P2) membrane fraction was prepared from frozen guinea pig brains (Pel-Freeze, Rogers, Ak.), minus cerebellum. The brain tissue was thawed slowly before homogenization. A crude P2 membrane fraction was also prepared from the livers of Sprague-Dawley rats (150-220 g, Taconic Farms). The animals were decapitated and their livers were minced and homogenized. The tissue homogenization was carried out at 4° C. in 10 mM tris-HCl/0.32 M sucrose, pH=7.4 using 10 motor-driven strokes in a Potter-Elvehjem Teflon glass homogenizer. The crude homogenate was centrifuged for 10 min at 1000 g and the crude nuclear (P1) pellet was discarded. Supernatants were centrifuged at 31000×g for 15 min to yield a plasma membrane-mitochondrial pellet (P2). This pellet was resuspended in 3 ml/g in 10 mM tris-HCl, pH 7.4 and used for binding studies. Protein concentrations were determined by the method of Lowry.
Filters were washed twice with ice-cold 10 mM tris-HCL. Prior to use, filters were soaked in 0.5% polyethyleneimine for about 30 min at 25° C.
When the assay was terminated, the membranes were filtered and the filtrate washed twice as above. The radioactivity was counted in Ecoscint (National Diagnostics, Manville, N.J.) after an overnight extraction of counts.
Ki values were calculated from the IC50 values using Cheng-Prusoff equation.

[5] = tested on: Sigma-1 sites, MCF-7 breast adenocarcinoma
[6] = target: Sigma-1 sites, T47D breast ductal carcinoma
[7] = tested on: human melanoma xenograft tumors (A2058); assay: Scintigraphic imaging of nude mice bearing human melanoma xenografts; format: in vivo, Balb/c nu/nu mice
Method: A2058 cells, derived from a brain metastasis of human malignant melanoma (Todaro et al. 1980 Proc. Natl. Acad. Sci. USA 77: 5258) were obtained from the National Institutes of Health. A human lung adenocarcinoma cell line, NCI-838, was obtained from the National Cancer Institute. These cells were grown in DMEM2 medium (Dulbecco's modification of Eagle's medium, […]) supplemented with 10% fetal bovine serum and 0.03% L-glutamine.
Balb/c nu/nu mice (17-22 g) bearing human melanoma or non-small cell lung carcinoma xenograft tumors were injected intravenously with 0.2 ml of saline solution containing [^131I]PAB or [^131I]DAB (150-200 μCi). The animals were anesthetized with ketamine containing rompun before the imaging studies. The images were obtained using a scintigraphic camera with a pin-hole collimator at 6 and 24 hr. post injection.

SMILES: CN(CCc1ccc([125I])cc1)CCN1CCCCC1 [4-[^125I]PEMP, N-[(4-[^125I]-iodophenyl)ethyl]-N-methyl-2-(1-piperidinyl)-ethylamine]
clearance [1]: rapid clearance from the liver, lungs and kidneys
Biodistribution Blood ([1]; 1 hr.): 1.82 ± 0.20 % ID/whole organ
Biodistribution Bone ([1]; 1 hr.): 0.23 ± 0.00 % ID/whole organ
Biodistribution Brain ([1]; 1 hr.): 1.79 ± 0.21 % ID/whole organ
Biodistribution Heart ([1]; 1 hr.): 0.30 ± 0.02 % ID/whole organ
Biodistribution Kidney ([1]; 1 hr.): 4.57 ± 0.88 % ID/whole organ
Biodistribution Liver ([1]; 1 hr.): 16.56 ± 2.19 % ID/whole organ
Biodistribution Lung ([1]; 1 hr.): 4.91 ± 0.23 % ID/whole organ
Biodistribution Muscle ([1]; 1 hr.): 15.60 ± 3.04 % ID/whole organ
Biodistribution Spleen ([1]; 1 hr.): 2.52 ± 0.49 % ID/whole organ
Biodistribution Thyroid ([1]; 1 hr.): 0.19 ± 0.02 % ID/whole organ
Biodistribution Blood ([1]; 6 hr.): 2.59 ± 0.32 % ID/whole organ
Biodistribution Bone ([1]; 6 hr.): 0.28 ± 0.01 % ID/whole organ
Biodistribution Brain ([1]; 6 hr.): 0.57 ± 0.01 % ID/whole organ
Biodistribution Heart ([1]; 6 hr.): 0.18 ± 0.00 % ID/whole organ
Biodistribution Kidney ([1]; 6 hr.): 1.45 ± 0.03 % ID/whole organ
Biodistribution Liver ([1]; 6 hr.): 6.39 ± 0.48 % ID/whole organ
Biodistribution Lung ([1]; 6 hr.): 1.22 ± 0.12 % ID/whole organ
Biodistribution Muscle ([1]; 6 hr.): 11.73 ± 0.63 % ID/whole organ
Biodistribution Spleen ([1]; 6 hr.): 0.96 ± 0.10 % ID/whole organ
Biodistribution Thyroid ([1]; 6 hr.): 0.20 ± 0.05 % ID/whole organ
Biodistribution Blood ([1]; 24 hr.): 1.01 ± 0.12 % ID/whole organ
Biodistribution Bone ([1]; 24 hr.): 0.17 ± 0.00 % ID/whole organ
Biodistribution Brain ([1]; 24 hr.): 0.23 ± 0.00 % ID/whole organ
Biodistribution Heart ([1]; 24 hr.): 0.05 ± 0.00 % ID/whole organ
Biodistribution Kidney ([1]; 24 hr.): 0.50 ± 0.02 % ID/whole organ
Biodistribution Liver ([1]; 24 hr.): 1.83 ± 0.16 % ID/whole organ
Biodistribution Lung ([1]; 24 hr.): 0.34 ± 0.03 % ID/whole organ
Biodistribution Muscle ([1]; 24 hr.): 5.55 ± 1.25 % ID/whole organ
Biodistribution Spleen ([1]; 24 hr.): 0.28 ± 0.03 % ID/whole organ
Biodistribution Thyroid ([1]; 24 hr.): 0.58 ± 0.03 % ID/whole organ

SMILES: CCCN1CCC[C@H](c2cccc(O)c2)C1 [(+)-PPP]
Ki [2]: > 1000 nM

SMILES: CN(CCc1ccc(Br)cc1)CCN1CCCCC1 [Br-PEMP, N-[2-(4-Bromophenyl)ethyl]-N-methyl-2-(1-piperidinyl)ethylamine]
Ki [3]: 51.8 nM
Ki [4]: 6.27 nM

Ki [2]: 247 ± 37 nM
SMILES: O=C(CCCN1CCC2(CC1)C(=O)NCN2c1ccccc1)c1ccc(F)cc1 [Spiperone]

SMILES: CC(C)=CCN1CC[C@]2(C)c3cc(O)ccc3C[C@H]1[C@H]2C [[^3H] (+)-pentazocine]
specific binding to sigma-1 sites [5]: No specific binding
Kd ([6]; read-out: Kd1 Sigma-1): 6.62 nM
Kd ([6]; read-out: Kd4 Sigma-1): 261 nM

SMILES: CCN(CC)CCNC(=O)c1ccc([131I])cc1 [[^131I]DAB, ^131I-N-(diethylaminoethyl)4-iodobenzamide, reference compound]
detection in the tumor, scintigraphic image ([7]; 6 and 24 hrs. post injection): no [^131I]DAB was detected in the tumor
uptake in the liver, scintigraphic image ([7]; 6 and 24 hrs. post-administration): considerable uptake
